Laboratory results taken from patent publication US20150306112A1 (National Cheng Kung University, priority 2014, published 2015).

Tests used:
human JAK3 JH1-JH2 = molecular target: T1, human JAK3 JH1-JH2 (Homo sapiens, UniProt P52333); assay: Native PAGE antibody competition, JAK3 JH1-JH2; assay type: binding; conditions: antibody against aa 716-967
T1 construct: incubated with human JAK2 JH1-JH2 and JAK3 JH1-JH2 at 37° C. for 3 h; purchased Life Technologies
T1 sequence (P52333 521-1124): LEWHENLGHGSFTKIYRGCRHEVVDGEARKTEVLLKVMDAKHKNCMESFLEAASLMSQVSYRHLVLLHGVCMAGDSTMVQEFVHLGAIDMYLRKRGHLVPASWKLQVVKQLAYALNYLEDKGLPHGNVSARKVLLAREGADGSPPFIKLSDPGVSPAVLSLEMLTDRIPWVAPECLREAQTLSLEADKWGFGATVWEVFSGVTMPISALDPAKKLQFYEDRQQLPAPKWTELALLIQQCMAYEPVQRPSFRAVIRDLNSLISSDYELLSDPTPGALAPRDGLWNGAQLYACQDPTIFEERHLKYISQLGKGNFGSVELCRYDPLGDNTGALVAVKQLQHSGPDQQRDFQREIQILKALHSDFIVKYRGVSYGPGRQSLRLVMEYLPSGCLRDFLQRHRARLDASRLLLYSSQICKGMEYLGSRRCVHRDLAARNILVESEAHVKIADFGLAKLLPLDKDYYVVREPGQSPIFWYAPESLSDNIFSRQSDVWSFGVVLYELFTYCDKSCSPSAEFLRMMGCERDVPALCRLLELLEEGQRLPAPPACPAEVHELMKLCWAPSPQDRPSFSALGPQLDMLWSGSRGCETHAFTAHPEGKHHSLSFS
Procedure: Samples were loaded onto native PAGE gels for electrophoresis, and the levels of free JH1-JH2 domain were measured by immunoblotting.

[1] = test system: IRF-1 and SOCS-1 transcription; assay: RT-PCR of IRF-1 and SOCS-1 mRNA; assay type: cell-based, human; conditions: Jurkat and THP-1 cells
Procedure: (§1) FIG. 3. […] Total cell lysates were examined for the indicated proteins by immunoblotting. (B) Jurkat cells were transfected with p-GAS-Luc plasmids. […] Total cell lysates were harvested, and their luciferase activities were determined and normalised to the total protein. […] Total mRNA was prepared, and the mRNA levels of IRF-1 and SOCS-1 were detected by RT-PCR. GAPDH was used as the reference band. […] Total cell lysates were examined for the indicated proteins by immunoblotting. β-actin was used as internal control. […] Total cell lysates were examined for the indicated proteins by immunoblotting. All data are one of three independent experiments with similar results.
Total RNA was extracted using the Trizol reagent according to the manufacturer's instructions. IRF-1, SOCS-1 and glyceraldehyde 3-phosphate GAPDH mRNA expression levels were detected by RT-PCR.

STAT3 in RAW264.7 cells = assay: Immunoblot of IL-6-induced pSTAT3 in RAW264.7 cells; assay type: cell-based
Procedure: (§2) FIG. 5. […] Cell proliferation was measured by MTS assay. ***P<0.001, **P<0.01, *P<0.05 when compared with the control group. […] Following incubation, proteins were extracted and assessed by immunoblot analysis. Similar results were obtained in at least three independent experiments.
(§3) Cell lysates were analysed by immunoblotting with primary antibodies against pSTAT1, pSTAT3, IRF-1 and β-actin, followed by the appropriate HRP-linked secondary antibodies. Immunoreactive protein bands were detected using an enhanced chemiluminescence (ECL) kit (Pierce Biotechnology, Rockford, Ill.).

[2] = test system: Con A-induced liver injury; assay: Con A-induced hepatitis in mice; assay type: in vivo, C57BL/6 mice
Procedure: FIG. 4. […] (A) Representative microphotographs showing liver and spleen histopathologic changes with hematoxylin-and-eosin-staining (original magnification ×200). (B) The necrosis was analysed with a four-point score: 0, no; 1, 1-20% necrosis; 2, 20-40% necrosis; 3, >40% necrosis. Infiltration of leukocytes was graded on a four-point severity scale: 0, none; 1, little; 2, moderate; 3, mass. (C) Serum ALT and AST activities were measured at 8 h after Con A injection. (D) Serum levels of IFN-γ, IL-6 and IL-4 were measured at 8 h after Con A injection by ELISA. (E) Proteins from liver and spleen tissues of vehicle, ZAA and dexamethasone-treated mice were extracted and subjected to immunoblot. Values are shown as mean±S.E.M. from individual mice (n=10-13 mice/group). ***P<0.001,**P<0.01, *P<0.05 as compared with vehicle-treated mice. Similar results were obtained in at least three independent experiments.
The positive control animals with Con A-induced hepatitis were given the same amount of solvent (0.2% cyclodextrin) i.p., without any drugs. Blood samples were collected from each group for plasma transaminase activities and cytokine expression level determination. Part of the liver and spleen biopsy samples were fixed in 10% formalin, embedded in paraffin for further hematoxylin-eosin staining and the rest of the tissue samples were frozen at −80° C. for further studies.
Liver injury was quantified by determination of alanine aminotransferase (ALT) and aspartate aminotransferase (AST) activities in serum, according to the Reitman-Frankel method.

C57/BL6 splenocytes = assay: Splenocyte proliferation by MTS assay; assay type: cell-based, mouse
Procedure: (§4) FIG. 1. […] After the incubation, cell lysates were assessed by immunoblot. […] In the same condition, cell proliferation was evaluated at 24, 48 and 72 h by MTS assay (lower). […] Data are expressed as the mean±SEM (n=4). **P, 0.01; ***P, 0.001 vs. stimulators-treated groups. Similar results were obtained in at least three independent experiments.
Primary mouse splenocytes were cultured in 96-well plates at a density of 4×10^5 cells/well in 10% FBS RPMI 1640 medium and activated with three different stimulators (Con A: 5 μg/mL; PHA: 2.5 μg/mL; Anti-CD3/CD28: 10/1 μg/mL) at 37° C. in 5% CO2/air. […] The cell proliferation was evaluated by MTS assay with a CellTiter kit (Promega, Madison, Wis.).

IRF-1 in Jurkat cells = assay: IRF-1 expression by immunoblot in Jurkat cells; assay type: cell-based, human; conditions: 20 μM, vs vehicle-treated cells
Procedure: as §4
The increase in cleaved pro-caspase-3 and pro-caspase-8 was also observed at the end of the 24 h ZAA-treatment. […] In other words, ZAA was safe in normal cells, but not in rapidly proliferating cells.

[3] = test system: interferon-gamma activated sequence (GAS); assay: Reporter assay for GAS transactivation activity; assay type: cell-based, human; conditions: Jurkat cells, IFN-γ 20 ng/mL, luciferase reporter
Procedure: as §1
The serum-containing medium of logarithmic growth Jurkat cells was replaced with serum-free RPMI, and the cells were transfected with p-GAS-Luc (0.5 μg/mL) plasmids using the Neon Transfection System (Invitrogen). Four hours later, the serum-free medium was replaced with RPMI containing 10% FBS. […] Luciferase reporter activity was measured according to the manufacturer's recommendation.

JAK1 and TYK2 = assay: Immunoblot of IFN-α/IFN-β-induced STAT1 and JAK1 phosphorylation in Jurkat cells; assay type: cell-based, human
Procedure: as §1
(§5) As JAK2/STAT3 signaling has a role in human hepatoma HepG2 cell proliferation, JAK2 activation promotes recruitment to the receptor complex of STAT3 and STAT5 [32], and LMO2 expression.

[4] = test system: BALB/c and C57/BL6 splenocytes; assay: Mixed lymphocyte reaction assay; assay type: cell-based, mouse; conditions: 72 h, MTS
Procedure: as §2
The cell number of total lymphocytes was measured using the CellTiter kit.

[5] = test system: P-388 murine leukaemia cells; conditions: cited from earlier work
[6] = test system: IFN-γ secretion of primary mouse splenocytes; assay: IFN-γ secretion analysis by ELISA in splenocytes; assay type: cell-based; conditions: 24 h, concentration-dependent
Procedure: as §4
Primary mouse splenocytes were plated at 1×10^5 cells/well with 10% FBS RPMI medium in 96-well plates. Four different experimental conditions were tested. […] All experiments were conducted at 37° C. After a total 24 h of incubation, supernatant IFN-γ concentrations were measured by ELISA kit following the manufactures instructions.

JAK3 = assay: Immunoblot of IL-2 induced JAK3/STAT5 phosphorylation in Jurkat and THP-1 cells; assay type: cell-based, human; conditions: ZAA 3 h, cytokine 30 min
Procedure: as §1
(§6) Cell lysates were analysed by western blot with primary antibodies against JAK2, pJAK2, JAK3, pJAK3, pSTAT1, pSTAT3, pSTAT5 and β-actin, followed by the appropriate HRP-linked secondary antibodies. Immunoreactive protein bands were detected using an enhanced chemiluminescence (ECL) kit (Pierce Biotechnology, Rockford, Ill.).

JAK2 = assay: Immunoblot of JAK2/STAT phosphorylation in Jurkat and THP-1 cells; assay type: cell-based, human; conditions: ZAA 3 h, cytokine 30 min
Procedure: as §1, §6

[7] = test system: JAK2, STAT3, STAT5 and LMO2 in HepG2 cells; assay: Immunoblot of JAK2/STAT3/STAT5/LMO2 in HepG2 cells; assay type: cell-based, human; conditions: 20 μM, 48 h
Procedure: as §1, §5

Jurkat cells = assay: Jurkat cell proliferation by MTS assay and caspase immunoblot; assay type: cell-based, human
human JAK2 JH1-JH2 = assay: Native PAGE antibody competition, JAK2 JH1-JH2; assay type: binding; conditions: antibody against JAK2 aa 745-955
pSTAT1 and IRF-1 = assay: Immunoblot of IFN-γ activated pSTAT1 and IRF-1 in Jurkat, THP-1, HMEC-1 and Chang liver cells; assay type: cell-based, human; conditions: 2 h and 8 h, ZAA pre-treatment
Procedure: FIG. 7. IFN-γ-activated STAT1 and induced IRF-1 protein expression in Jurkat, THP-1, Chang liver and HMEC-1 cells. […] After various time periods, cells were harvested, and total protein extracts were prepared for imunoblot analysis using the indicated antibodies. Similar results were obtained in at least three independent experiments.
as §3

[8] = test system: STAT1, STAT3 and IRF-1 in splenocytes; assay: Immunoblot of IFN-γ/pSTAT1 and IL-6/pSTAT3 signaling in splenocytes; assay type: cell-based, mouse
Procedure: as §4, §3

[9] = 20 mg/kg i.p., 8 h after Con A injection

SMILES: C=C(CC[C@@H](C)[C@H]1CC[C@H]2C3=C(C(=O)C[C@]12C)[C@@]1(C)CCC(=O)[C@@H](C)[C@@H]1CC3=O)C(C)C(=O)O (some centres unmarked) [ZAA, Zhankuic acid A]
- anti-JAK3 antibody recognition of native JH1-JH2 domain (human JAK3 JH1-JH2): reduced
- IFN-γ stimulated IRF-1 and SOCS-1 transcription [1]: significantly prevented
- IL-6-induced Tyr705 phosphorylation of STAT3 (STAT3 in RAW264.7 cells): suppress
- extent of liver damage (histopathology) ([2]; 20 mg/kg i.p. 1 h prior to Con A, 8 h): markedly reduce
- pathologic grades: necrosis and infiltration of leukocytes ([2]; 20 mg/kg i.p. pre-treatment): significant preventative effects
- hepatitis phenotype by ALT and AST serum levels ([2]; 20 mg/kg i.p., 8 h after Con A): almost completely recovered
- reduction of serum level of IFN-γ [2, 9]: 37%
- reduction of serum level of IL-4 [2, 9]: 38%
- reduction of serum level of IL-6 [2, 9]: 66%
- caspase 3 activity and IRF-1 expression in liver and spleen tissues ([2]; 20 mg/kg pre-treatment, immunoblot): significantly reduced
- stimulator-activated T cell proliferation (C57/BL6 splenocytes; Con-A, PHA or anti-CD3/CD28-induced splenocytes, concentration-dependent): significantly inhibited
- proliferation of splenocytes, ZAA alone (C57/BL6 splenocytes; no stimulator, up to 20 μM): did not affect
- IRF-1 expression (IRF-1 in Jurkat cells): suppressed
- GAS-mediated transactivation [3]: inhibited
- JAK1 phosphorylation (JAK1 and TYK2; 20 μM): not suppressed
- IFN-α and IFN-β-induced STAT1 phosphorylation (JAK1 and TYK2; Jurkat cells, via JAK1 and TYK2): could not inhibit
- cell proliferation in mixed lymphocytes reaction [4]: inhibitory effect
- cytotoxic activity [5]: exhibited cytotoxic activity
- Con-A-induced IFN-γ secretion [6]: reduced
- IL-2 induced JAK3/STAT5 phosphorylation (JAK3): potently inhibited
- IFN-γ-induced JAK2/STAT1, IL-6 induced JAK2/STAT1 and JAK2/STAT3, GM-CSF induced JAK2/STAT5 phosphorylation (JAK2): potently inhibited
- phosphorylation of JAK2, STAT3 and STAT5, and LMO2 expression [7]: effectively inhibit
- cleaved pro-caspase-3 and pro-caspase-8 (Jurkat cells; Jurkat, 24 h ZAA-treatment): increase
- Jurkat cell proliferation (Jurkat cells; without or with Con A, MTS): remarkably inhibited
- anti-JAK2 antibody recognition of native JH1-JH2 domain (human JAK2 JH1-JH2): reduced
- IFN-γ activated pSTAT1 and IRF-1 (pSTAT1 and IRF-1): suppressed
- IRF-1 (downstream of STAT) ([8]; IFN-γ, concentration-dependent): inhibitory effect
- IL-6-induced Tyr705 phosphorylation of STAT3 ([8]; splenocytes): suppress
- IFN-γ-induced Tyr701 phosphorylation of STAT1 ([8]; splenocytes and Jurkat cells, IFN-γ 30 min): completely inhibit
